Measured values: patent US7595053B2 (priority 2001, dated 2009)
Where two headings read alike, the source gives them in different places.

What was measured:
MAb Hs-2 = assay type: binding
MAb Hs-3 = assay type: binding
Mab Hs-1 = assay type: binding
[1] = test system: Japanese encephalitis virus; assay type: in vivo, mice (BALB/C, C3H, SWISS/Albino); conditions: 50 ug peptide per mouse per dose sc with Freund's adjuvant every 14 days; FIGS. 3A-3C
[2] = test system: Japanese encephalitis virus; assay type: in vivo, BALB/c mice; conditions: 40 ug conjugate per mouse per dose with Freund's adjuvant
[3] = test system: Japanese encephalitis virus; assay type: in vivo, mice (C3H, BALB/c, SWISS); conditions: observed 21 days
[4] = test system: Japanese encephalitis virus; assay type: cell-based, Porcine stable kidney cells; sera from mice
[5] = other strains of mice (BALB/c or SWISS)

Row | Substance | Reactivity with monoclonal antibody Hs-2, OD values at 492 nm (MAb Hs-2) | Reactivity with monoclonal antibody Hs-3, OD values at 492 nm (MAb Hs-3) | Reactivity with monoclonal antibody Hs-1, OD values at 492 nm (Mab Hs-1) | also measured
1 | YSAQVGASQ [155-YSAQVGASQ-163] | 0.492 | 0.334 | 0.118 | –
2 | VRMINIEA [43-VRMINIEA-50] | 0.012 | 0.133 | 0.338 | –
3 | AIVVEYSS [269-AIVVEYSS-276] | 0.041 | 0.115 | 0.696 | Reaction with Mab Hs-1 (in words) (Mab Hs-1): react with Mab Hs-1
4 | VEYSSSVK [272-VEYSSSVK-279] | 0.040 | 0.106 | 0.290 | –
5 | SENHGNYSAQVGASQ [149-SENHGNYSAQVGASQ-163] | 0.415 | 0.377 | 0.093 | Anti Japanese encephalitis virus response by ELISA (in words) [1]: capable of eliciting an immune response against JE virus
6 | LDVRMINI [41-LDVRMINI-48] | 0.007 | 0.082 | 0.277 | –
7 | IMANDKPT [33-IMANDKPT-40] | 0.016 | 0.017 | 0.110 | –
8 | NIEASQLA [47-NIEASQLA-54] | 0.003 | 0.081 | 0.07 | –
9 | YSAQVGASQAAKF [155-YSAQVGASQAAKF-167] | 0.501 | 0.377 | 0.106 | –
10 | ANDKPTLD [35-ANDKPTLD-42] | 0.016 | 0.052 | 0.022 | –
11 | DVRMINIE [42-DVRMINIE-49] | 0.008 | 0.043 | 0.155 | –
12 | VVEYSSSV [271-VVEYSSSV-278] | 0.029 | 0.090 | 0.659 | –
13 | Ovalbumin | – | – | – | Reactivity of anti peptide sera with Japanese encephalitis virus by ELISA, mean optical density ([2]; sera collected on post inoculation day 7): 0.127 ± 0.022; Reactivity of anti peptide sera with Japanese encephalitis virus by ELISA, mean optical density ([2]; sera collected on post inoculation day 14): 0.116 ± 0.072; Reactivity of anti peptide sera with Japanese encephalitis virus by ELISA, mean optical density ([2]; sera collected on post inoculation day 21): 0.153 ± 0.003
14 | YSSSVKLT [274-YSSSVKLT-281] | 0.054 | 0.153 | 0.616 | –
15 | TLDVRMIN [40-TLDVRMIN-47] | 0.008 | 0.064 | 0.329 | –
16 | SSVKLTSG [276-SSVKLTSG-283] | 0.061 | 0.123 | 0.447 | –
17 | IVVEYSSS [270-IVVEYSSS-277] | 0.030 | 0.112 | 0.637 | –
18 | PTLDVRMI [39-PTLDVRMI-46] | 0.006 | 0.025 | 0.313 | Reaction with Mab Hs-1 (in words) (Mab Hs-1): react with Mab Hs-1
19 | DKPTLDVR [37-DKPTLDVR-44] | 0.016 | 0.035 | 0.029 | –
20 | EYSSSVKL [273-EYSSSVKL-280] | 0.045 | 0.110 | 0.538 | –
21 | H-SENHGNYSAQVGASQGSIGGVFNSIGKAVHQVFG-OH [chimeric peptide] | – | – | – | Resistance to lethal virus challenge (survival) ([3]; C3H mice, challenge virus dose 2.3 log LD 50 i.p. followed by 1% starch i.c., FIG. 5): able to resist the virus challenge; Resistance to lethal virus challenge (survival) [3, 5]: nor were they able to resist the virus challenge; Neutralization of Japanese encephalitis virus by anti-peptide sera [4, 5]: not able to neutralize the virus; Neutralization of Japanese encephalitis virus by anti-peptide sera ([4]; sera from C3H mice, diluted 1:50, plaque reduction, FIG. 4): capable of neutralizing Japanese encephalitis virus; Anti Japanese encephalitis virus response by ELISA (in words) [1]: capable of eliciting an immune response against JE virus
22 | NHGNYSAQVGASQ [151-NHGNYSAQVGASQ-163] | 0.294 | 0.258 | 0.074 | –
23 | MINIEASQ [45-MINIEASQ-52] | 0.001 | 0.080 | 0.177 | –
24 | SSSVKLTS [275-SSSVKLTS-282] | 0.053 | 0.136 | 0.765 | –
